Laboratory results from patent US12234257B2, “Triterpene saponin derivative and use thereof” (KOREA INSTITUTE OF SCIENCE AND TECHNOLOGY, priority 2020, dated 2025).

Tests used:
DA level in ST = assay: Measurement of DA level in ST (ELISA); assay type: in vivo, mice (C57BL/6j); conditions: MPTP 30 mg/kg mice
Protocol: (§1) 40 mice were classified into five groups such that eight mice belonged to each group. After the habituation period, all mice were orally administered with a drug every day. While the mice of Groups 1 and 2 were administered with saline (p.o.), the mice of Groups 3, 4, and 5 were administered with 5 mg/kg ropinirole (p.o.), 5 mg/kg AKNS-2 (p.o.), and 15 mg/kg AKNS-2 (p.o.), respectively. […]
(§2) On the 7th day after the last administration of MPTP, SNpc and ST of each mouse were carefully excised and stored at −80° C. until use. […] A concentration of proteins contained in the supernatant was measured by the Bradford method. […]
DA levels in ST were measured using a competitive ELISA kit (Abnova, Taipei City, Taiwan) according to the manufacturer's instructions. […] After determining a concentration of proteins contained in the supernatant, the DA level in each brain sample was detected twice using the ELISA kit. Absorbance was measured using a microreader (BioTek, Vt., USA) at 450 nm, and the intensity was inversely proportional to the DA level. The DA level was expressed as ng/mg protein.

MAO-B = target: T1, MAO-B (Mus musculus, UniProt Q8BW75); assay: Determination of MAO-B activity of ST and SN; assay type: in vivo, mice (C57BL/6j); conditions: both ST and SN; MPTP 30 mg/kg mice; 5 mg/kg and 15 mg/kg p.o.
T1 construct: a MAO-B substrate was added to a MAO-B enzyme-containing substance (ST and SN samples); from tissue; host or cells: mouse brain: striatum (ST) and substantia nigra (SN/SNpc) homogenate supernatant
T1 sequence (Q8BW75 1-520): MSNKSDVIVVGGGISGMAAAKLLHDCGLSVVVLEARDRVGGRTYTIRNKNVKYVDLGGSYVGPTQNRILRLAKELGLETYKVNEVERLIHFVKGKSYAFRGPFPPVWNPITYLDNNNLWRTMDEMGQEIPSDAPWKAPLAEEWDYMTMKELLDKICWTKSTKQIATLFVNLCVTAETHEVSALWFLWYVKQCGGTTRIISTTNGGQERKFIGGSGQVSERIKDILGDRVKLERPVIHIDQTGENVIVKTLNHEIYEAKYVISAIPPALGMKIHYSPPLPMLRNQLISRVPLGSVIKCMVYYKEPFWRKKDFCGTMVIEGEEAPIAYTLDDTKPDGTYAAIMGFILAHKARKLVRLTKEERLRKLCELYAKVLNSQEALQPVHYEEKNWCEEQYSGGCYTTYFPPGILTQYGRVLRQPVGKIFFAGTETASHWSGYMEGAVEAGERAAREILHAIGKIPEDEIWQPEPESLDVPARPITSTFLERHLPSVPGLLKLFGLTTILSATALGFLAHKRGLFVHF
Protocol: as §1, with “respectively. From the 5th day therefrom, the mice of Group 1 were intraperitoneally administered with a saline at 1 hour after gavage feeding of saline, and the mice of Groups 2, 3, 4, and 5 were administered with 30 mg/kg MPTP (i.p.) at 1 hour after gavage feeding of saline, ropinirole, AKNS-2 (5 mg/kg), and AKNS-2 (15 mg/kg), respectively.” for “respectively.”
as §2
A MAO-B assay kit of Promega Corporation (Woods Hollow Road, Madison, Wis., USA) was used to determine MAO-B activity of ST and SN according to the manufacturer's instructions. […] Luminescence signals were measured using an Infinite M1000 multimode microplate reader (TECAN, Männedorf, Switzerland). MAO-B activity was expressed as relative light unit (RLU)/mg protein).

[1] = test system: MPTP-induced in vivo PD model; assay: Wire hanging test; design: species or system mice (C57BL/6j); conditions: MPTP mice
Protocol: In this study, all animal management and experimental protocols were performed in compliance with guidelines of the Institutional Animal Care and Use Committee of the Korea Institute of Science and Technology. 40 mice (C57BL/6j, male, 8 weeks old) were purchased from SLC Inc. (Shizuoka, Japan). After arrival, every four mice were hosed in each cage (30 cm×18.5 cm×13 cm) and allowed free access to feed and water. All mice were housed under the following constant conditions: lights on from 6:00 to 18:00, a temperature of 23° C.±1° C., and a humidity of 50%±10%. After 7 days of a habituation period, the mice were used in the experiments according to standard protocols. 40 mice were classified into five groups such that eight mice belonged to each group. After the habituation period, all mice were orally administered with a drug every day. […] Each mouse was administered with a single dose of saline/MPTP injection every day for 8 days. […] A time taken for the mouse to fall off the wire was recorded up to 300 seconds. On the day before MPTP administration, the test was performed three times for each mouse, and an average hanging time of three tests was analyzed as an index to evaluate balance, myofunction, and coordination. […] Average latency to fall off the wire onto the bedding material was calculated for each mouse.

| activity of MAO-B increased by MPTP (MAO-B) | Structure (SMILES) | DA level in ST (DA level in ST; 15 mg/kg p.o.) | behavior performance in wire hanging test ([1]; 15 mg/kg p.o., 2 hours and 24 hours) | DA level in ST (DA level in ST; 5 mg/kg p.o.) | latency to fall off in wire hanging test ([1]; 5 mg/kg p.o., 2 hours) |
| --- | --- | --- | --- | --- | --- |
| could not reduce the activity of MAO-B | C[C@@H]1O[C@@H](O[C@@H]2[C@@H](O)[C@H](O[C@@H]3[C@@H](O[C@@H]4OC[C@@H](O)[C@H](O)[C@H]4O)[C@@H](O)[C@H](O[C@H]4[C@H](OC(=O)[C@]56CCC(C)(C)C[C@H]5C5=CC[C@@H]7[C@@]8(C)C[C@H](O)[C@H](O[C@@H]9O[C@H](CO)[C@@H](O)[C@H](O[C@@H]%10OC[C@@H](O)[C@H](O)[C@H]%10O)[C@H]9O)[C@@](C)(CO)[C@@H]8CC[C@@]7(C)[C@]5(C)C[C@H]6O)OC[C@H](O)[C@@H]4O)O[C@H]3C)OC[C@H]2O)[C@H](O)[C@H](O)[C@H]1O [Compound 1, 3-O-β-D-xylopyranosyl-(1→3)-β-D-glucopyranosylpolygalacic acid 28-O-α-L-rhamnopyranosyl-(1→3)-β-D-xylopyranosyl-(1→4)-[β-D-xylopyranosyl-(1→3)]-α-L-rhamnopyranosyl-(1→2)-α-L-arabinopyranosyl ester] | the decrease in the DA level induced by MPTP was restored | impaired behavior performance was significantly improved | – | – |
| – | CCCN(CCC)CCc1cccc2c1CC(=O)N2 [ropinirole, reference compound] | – | – | the decrease in the DA level induced by MPTP was restored | improved latency deteriorated by MPTP |
